Assay: Pharmacokinetics after oral administration of the monophosphate prodrug to rats (blood and plasma)
Format: in vivo
Method: A sodium salt of the monophosphate prodrug compound (Formula (V-B)) was administered orally to rats in a dose of 10 mg/kg (5 mL/kg). The vehicle administered was dimethylacetamide:PEG400:30% HβCD (5:25:70). The pharmacokinetic results are tabulated below and graphically illustrated in FIG. 1.

Row | whole blood Cmax following administration of the compound of formula (III), compared with Cmax after the monophosphate prodrug (compound of formula (III) administered at the same dose) | Compound | conversion of the prodrug to compound of formula (III) (oral, 10 mg/kg, rats)
1 |  | CC(C)n1nccc1-c1ncccc1COc1cccc(OP(=O)(O)O)c1C=O [Formula (V-B), 2-formyl-3-((2-(1-isopropyl-1H-pyraol-5-yl)pyridin-3-yl)methoxy)phenyl dihydrogen phosphate] | efficiently con veiled to compound of formula (III)
2 | equivalent | CC(C)n1nccc1-c1ncccc1COc1cccc(O)c1C=O [Formula (III), 2-hydroxy-6-([2-[1-(propan-2-yl)-1H-pyrazol-5-yl]pyridin-3-yl]methoxy)benzaldehyde] | 
